Tests used:
cyclin D2-Cdk4 = target: T1, cyclin D2-Cdk4 (Homo sapiens, UniProt P11802); assay: Cdk4 inhibitory action: cyclin D2-Cdk4 kinase activity, 33P-ATP, RB peptide substrate; assay type: biochemical; conditions: cyclin D2-Cdk4, 50 μM ATP
T1 construct: made in house; host or cells: insect cell Sf9 (baculovirus)
Description: (§1) First, the cDNA of Cdk4, and the cDNA of a fusion protein of cyclin D2, an activating factor of Cdk4, and glutathione S-transferase, were integrated into a baculovirus expression vector to prepare a recombinant baculovirus. This was co-transfected into insect cell Sf9 to express an active complex of the cyclin D2/glutathione S-transferase fusion protein-Cdk4 at a high level. The cells were recovered and solubilized, then the active complex was adsorbed onto Glutathione Sepharose, and a cyclin D2-Cdk4 complex was recovered using Precision Protease and was purified by HPLC column chromatography [EMBO J., Vol. 15, 7060-7069 (1996)].
For the measurement of the activity of cyclin D2-Cdk4, a synthetic peptide (Arg-Pro-Pro-Thr-Leu-Ser-Pro-Ile-Pro-His-Ile-Pro-Arg) corresponding to amino acid residue No. 775-787 of RB protein was used as the substrate [EMBO J., Vol. 15, 7060-7069 (1996)].
The reaction was performed by partially modifying the method of Kitagawa et al. [Oncogene, Vol. 7, 1067-1074 (1992)]. The volume of the reaction solution was 21.1 μL, and the composition of the reaction buffer (R buffer) was 20 mM Tris-hydrochloric acid buffer (pH 7.4)/10 mM magnesium chloride/4.5 mM 2-mercaptoethanol/1 mM ethylene glycol bis(β-aminoethyl ether)-N,N,N′,N′-tetraacetic acid (EGTA). To this reaction buffer, purified cyclin D2-Cdk4, 100 μM of the substrate peptide, 50 μM of non-labeled adenosine triphosphate (ATP), and 1 μCi of [γ-33P]-labeled ATP (2000 to 4000 Ci/mmole) were added to react at 30° C. for 45 minutes. Then, 10 μL of 350 mM phosphate buffer was added to the reaction system to terminate the reaction. The substrate peptide was adsorbed onto P81 paper filter on a 96-well plate, and then washed several times with 75 mM phosphate buffer. The radioactivity of the substrate peptide was measured with a liquid scintillation counter. The [γ-33P]-labeled ATP was purchased from Daiichi Pure Chemicals Co., Ltd.
Addition of the test compound to the reaction system was carried out by first preparing a dilution series of solutions of the compound in dimethylsulfoxide (DMSO), and adding 1.1 μL of the dilutions. A control was provided by adding 1.1 μL of DMSO to the reaction system.
A representative compound of the compounds according to the invention was selected, and the IC50 value of this compound for the cyclin D2-Cdk4 activity was determined.

JURKAT = assay: Inhibitory action against cell proliferation (WST-8), JURKAT; assay type: cell-based; conditions: Homo sapiens, 72 h, Jurkat cells, 3 days culture, read-out: concentration for 50% inhibition of cell proliferation (IC50), Jurkat
Procedure: Clinically isolated cancer cell lines EOL-1, KU812 and JURKAT were cultured in RPMI1640 medium containing 10% fetal calf serum at 37° C. in the presence of 5% CO2 under an atmosphere of saturated steam.
The inhibitory action against cell proliferation was measured by modifying the method of Skehan et al. [J. Natl. Cancer Inst., Vo. 82, 1107-1112 (1990)] according to the method of Ishiyama et al. [Talanta, Vol. 44, 1299 (1997)]. 100 μL each of cell culture medium containing 1×10^3 live cells of EOL-1, KU812 and JURKAT, respectively, was dispensed into each well of a 96-well cell culture dish, and the cells were cultured overnight. On the next day, a dilution series of solutions in DMSO was prepared from a DMSO solution of the compound of each Example. Then, the dilution series of solutions or DMSO only as a control for no drug addition were separately added to the medium for cell culture. Finally, 100 μL each of the culture medium containing either the dilution series of solutions of the compounds or DMSO only, was added to the cells which had been cultured in a 96-well dish, and then the cells were further cultured for 3 days.
After adding 20 μL each of WST-8 (Kishida Chemical Co., Ltd.) to each well and culturing the cells for another 2 hours, the optical densities at 450 nm were measured against a reference wavelength of 650 nm, and were compared with the control group. The results obtained by determining the concentrations for 50% inhibition of cell proliferation (IC50 (nM)) of the compounds of Examples are presented in the following Table 4.

cyclin D2-Cdk6 = target: T2, cyclin D2-Cdk6 (Homo sapiens, UniProt Q00534); assay: Cdk6 inhibitory action: cyclin D2-Cdk6 kinase activity; assay type: biochemical; conditions: for K1/K6, selectivity for Cdk6 against Cdk1: IC50 of Cdk1 divided by IC50 of Cdk6; for K2/K6, selectivity for Cdk6 against Cdk2: IC50 of Cdk2 divided by IC50 of Cdk6; for K5/K6, selectivity for Cdk6 against Cdk5: IC50 of Cdk5 divided by IC50 of Cdk6; for K7/K6, selectivity for Cdk6 against Cdk7: IC50 of Cdk7 divided by IC50 of Cdk6; for K9/K6, selectivity for Cdk6 against Cdk9: IC50 of Cdk9 divided by IC50 of Cdk6; for IC50: cyclin D2-Cdk6, 50 μM ATP
T2 construct: made in house; host or cells: insect cell Sf9 (baculovirus)
Description: as §1, with “In the same manner as in the case of cyclin D2-Cdk4,” for “First,”, “Cdk6,” for “Cdk4,”, “protein-Cdk6” for “protein-Cdk4”, “D2-Cdk6” for “D2-Cdk4”, “chromatography.” for “chromatography [EMBO J., Vol. 15, 7060-7069 (1996)].”
For the measurement of the activity of cyclin D2-Cdk6, a synthetic peptide (Arg-Pro-Pro-Thr-Leu-Ser-Pro-Ile-Pro-His-Ile-Pro-Arg) was used as the substrate.
The reaction was performed by partially modifying the method of Kitagawa et al. [Oncogene, Vol. 7, 1067-1074 (1992)]. The volume of the reaction solution was 21.1 μL, and to the R buffer, purified cyclin D2-Cdk6, 100 μM of the substrate peptide, 50 μM of non-labeled adenosine triphosphate (ATP), and 1 μCi of [γ-33P]-labeled ATP (2000 to 4000 Ci/mmole) were added to react at 30° C. for 40 minutes. Then, 10 μL of 350 mM phosphate buffer was added to the reaction system to terminate the reaction. The substrate peptide was adsorbed onto P81 paper filter on a 96-well plate, and then washed several times with 75 mM phosphate buffer. The radioactivity of the substrate peptide was measured with a liquid scintillation counter.
Addition of the compound according to the invention to the reaction system was carried out by first preparing a dilution series of solutions of the compound in dimethylsulfoxide (DMSO), and adding 1.1 μL of the dilutions. A control was provided by adding 1.1 μL of DMSO to the reaction system.
A representative compound of the compounds according to the invention was selected, and the IC50 value of this compound for the cyclin D2-Cdk6 activity was determined.

T2 sequence (Q00534 whole entry): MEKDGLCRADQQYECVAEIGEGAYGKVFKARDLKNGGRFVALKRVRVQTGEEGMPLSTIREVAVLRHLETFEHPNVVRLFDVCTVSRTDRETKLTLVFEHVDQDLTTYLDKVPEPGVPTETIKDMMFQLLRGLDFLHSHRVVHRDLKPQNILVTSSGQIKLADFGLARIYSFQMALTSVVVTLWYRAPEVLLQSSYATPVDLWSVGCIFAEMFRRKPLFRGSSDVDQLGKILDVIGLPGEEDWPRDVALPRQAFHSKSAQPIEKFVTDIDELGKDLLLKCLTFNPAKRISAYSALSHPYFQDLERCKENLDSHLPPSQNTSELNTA
T2 sequence (P30279 whole entry partner): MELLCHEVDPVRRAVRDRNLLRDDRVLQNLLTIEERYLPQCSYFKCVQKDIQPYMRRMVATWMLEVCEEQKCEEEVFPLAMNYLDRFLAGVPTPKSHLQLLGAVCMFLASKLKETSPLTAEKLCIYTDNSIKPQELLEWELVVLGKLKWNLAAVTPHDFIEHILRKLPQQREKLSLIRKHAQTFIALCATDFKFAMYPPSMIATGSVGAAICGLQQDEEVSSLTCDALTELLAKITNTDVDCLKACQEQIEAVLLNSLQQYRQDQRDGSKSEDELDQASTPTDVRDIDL
T1 sequence (P11802 whole entry): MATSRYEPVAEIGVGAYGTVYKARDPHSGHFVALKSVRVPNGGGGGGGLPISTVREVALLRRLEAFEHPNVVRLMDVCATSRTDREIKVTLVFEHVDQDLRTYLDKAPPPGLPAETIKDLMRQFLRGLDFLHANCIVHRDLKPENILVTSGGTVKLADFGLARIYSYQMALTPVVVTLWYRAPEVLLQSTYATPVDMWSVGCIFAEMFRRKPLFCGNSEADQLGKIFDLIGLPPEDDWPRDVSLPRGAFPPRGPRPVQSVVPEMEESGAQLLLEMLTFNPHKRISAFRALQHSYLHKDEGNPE
T1 sequence (P30279 whole entry partner): as the sequence (P30279 whole entry partner) above

Cc1cc(-c2cnc(Nc3cnc(CN4CCN(C)CC4)cn3)s2)nc(OC2CCCCC2)n1 [Example 1, 5-[2-(cyclohexyloxy)-6-methyl-4-pyrimidinyl]-2-[5-(4-methyl-1-piperazinyl)methyl-2-pyrazinyl]amino-1,3-thiazole]
IC50 (cyclin D2-Cdk4): 9.2 nM
IC50 (JURKAT): 230 nM
K1/K6, selectivity for Cdk6 against Cdk1 (cyclin D2-Cdk6): 77
K2/K6, selectivity for Cdk6 against Cdk2 (cyclin D2-Cdk6): 218
K5/K6, selectivity for Cdk6 against Cdk5 (cyclin D2-Cdk6): 385
K7/K6, selectivity for Cdk6 against Cdk7 (cyclin D2-Cdk6): 68
K9/K6, selectivity for Cdk6 against Cdk9 (cyclin D2-Cdk6): 321
IC50 (cyclin D2-Cdk6): 7.8 nM

Cc1cc(-c2cnc(Nc3cnc(CN4CCC(N(C)C)C4)cn3)s2)nc(OC2CCCCC2)n1 (stereo not drawn) [Example 13, 5-[2-(cyclohexyloxy)-6-methyl-4-pyrimidinyl]-2-[5-(3-dimethylamino-1-pyrrolidinyl)methyl-2-pyrazinyl]amino-1,3-thiazole]
IC50 (cyclin D2-Cdk4): 6 nM
IC50 (JURKAT): 170 nM
K1/K6, selectivity for Cdk6 against Cdk1 (cyclin D2-Cdk6): 48
K2/K6, selectivity for Cdk6 against Cdk2 (cyclin D2-Cdk6): 65
K5/K6, selectivity for Cdk6 against Cdk5 (cyclin D2-Cdk6): 200
K7/K6, selectivity for Cdk6 against Cdk7 (cyclin D2-Cdk6): 28
K9/K6, selectivity for Cdk6 against Cdk9 (cyclin D2-Cdk6): 33
IC50 (cyclin D2-Cdk6): 13 nM

Cc1cc(-c2cnc(Nc3cnc(CN4CCN(C)CC4)cn3)s2)nc(NC2CCCCC2)n1 [Example 55, 5-[2-(cyclohexylamino)-6-methyl-4-pyrimidinyl]-2-[5-(4-methyl-1-piperazinyl)methyl-2-pyrazinyl]amino-1,3-thiazole]
IC50 (cyclin D2-Cdk4): 3.8 nM
IC50 (cyclin D2-Cdk6): 5.1 nM

Cc1cc(-c2cnc(Nc3cnc(CN4CCCC4)cn3)s2)nc(SC2CCCCC2)n1 [Example 93, 5-[2-(cyclohexylthio)-6-methyl-4-pyrimidinyl]-2-[5-(1-pyrrolidinyl)methyl-2-pyrazinyl]amino-1,3-thiazole]
IC50 (cyclin D2-Cdk4): 4.2 nM
IC50 (cyclin D2-Cdk6): 7.3 nM

Cc1cc(-c2cnc(Nc3cnc(CN4CCC(N(C)C)C4)cn3)s2)nc(SC2CCCCC2)n1 (stereo not drawn) [Example 94, 5-[2-(cyclohexylthio)-6-methyl-4-pyrimidinyl]-2-[5-(3-dimethylamino-1-pyrrolidinyl)methyl-2-pyrazinyl]amino-1,3-thiazole]
IC50 (cyclin D2-Cdk4): 3.9 nM
IC50 (JURKAT): 180 nM
IC50 (cyclin D2-Cdk6): 16 nM

Cc1cc(-c2cnc(Nc3cnc(CNC(C)C)cn3)s2)nc(SC2CCCCC2)n1 [Example 96, 5-[2-(cyclohexylthio)-6-methyl-4-pyrimidinyl]-2-[5-(isopropylamino)methyl-2-pyrazinyl]amino-1,3-thiazole]
IC50 (cyclin D2-Cdk4): 5.8 nM
IC50 (JURKAT): 140 nM
IC50 (cyclin D2-Cdk6): 9.3 nM

Cc1cc(-c2cnc(Nc3cnc(CNCCO)cn3)s2)nc(SC2CCCCC2)n1 [Example 99, 5-[2-(cyclohexylthio)-6-methyl-4-pyrimidinyl]-2-[5-(2-hydroxyethylamino)methyl-2-pyrazinyl]amino-1,3-thiazole]
IC50 (cyclin D2-Cdk4): 6 nM
IC50 (JURKAT): 190 nM

Cc1cc(-c2cnc(Nc3cnc(CN4CCN(C)CC4)cn3)s2)nc(Sc2ccccc2Cl)n1 [Example 109, 5-[2-(2-chlorophenylthio)-6-methyl-4-pyrimidinyl]-2-[5-(4-methyl-1-piperazinyl)methyl-2-pyrazinyl]amino-1,3-thiazole]
IC50 (cyclin D2-Cdk4): 5.7 nM
IC50 (JURKAT): 110 nM
IC50 (cyclin D2-Cdk6): 18 nM

CC(=O)N1CCN(Cc2ccc(Nc3ncc(-c4cc(C)nc(OC5CCCCC5)n4)s3)nc2)CC1 [Example 125, 5-[2-(cyclohexyloxy)-6-methyl-4-pyrimidinyl]-2-[5-(4-acetyl-1-piperazinyl)methyl-2-pyridyl]amino-1,3-thiazole]
IC50 (cyclin D2-Cdk4): 9 nM
IC50 (JURKAT): 260 nM
IC50 (cyclin D2-Cdk6): 17 nM

Cc1cc(-c2cnc(Nc3ccc(CN4CCC[C@H]4CO)cn3)s2)nc(NC2CCCCC2)n1 [Example 137, (2S)-5-[2-(cyclohexylamino)-6-methyl-4-pyrimidinyl]-2-[5-(2-hydroxymethyl-1-pyrrolidinyl)methyl-2-pyridyl]amino-1,3-thiazole]
IC50 (cyclin D2-Cdk4): 7.2 nM
IC50 (JURKAT): 250 nM
K1/K6, selectivity for Cdk6 against Cdk1 (cyclin D2-Cdk6): 57
K2/K6, selectivity for Cdk6 against Cdk2 (cyclin D2-Cdk6): 214
K5/K6, selectivity for Cdk6 against Cdk5 (cyclin D2-Cdk6): 143
K7/K6, selectivity for Cdk6 against Cdk7 (cyclin D2-Cdk6): 57
K9/K6, selectivity for Cdk6 against Cdk9 (cyclin D2-Cdk6): 52
IC50 (cyclin D2-Cdk6): 21 nM
